Numbered stars: 1 amine (or outer) side, 2 acyl side, 3 side chain; on linkers, the order of the positions; unused ones are H or OH. Square brackets hold non-standard residues; d marks the D form. Peptide text beside a SMILES is read from it. * marks the point of attachment. Dolaproine = CO[C@@H]([C@@H]1CCCN1)[C@@H](C)C(=O)O; NHCH2(1-pyrenyl) = c1cc2ccc3ccc(CN*)c4ccc(c1)c2c34; Dil = CC[C@H](C)[C@H](NC)[C@@H](CC(=O)O)OC; PABC = O=C(OCc1ccc(N[*:1])cc1)[*:2]; X1 = C[C@@H](N*)[C@@H](O)c1ccccc1; Cit = NC(=O)NCCC[CH](N)C(=O)O; NMeV = CN[C@H](C(=O)O)C(C)C; Glycolyl = O=C(CO)*; Sar = CNCC(=O)O
How the values were obtained:
in vitro = in vitro ADME; conditions: BALB/c, mouse, plasma
Procedure: Each test compound (10 mM in DMSO, 2 µL) was mixed with 1 µL of 1-pyrenemethylamine (10 mM in DMSO, internal standard) and incubated at 37 °C for 10 min. Pre-warmed human plasma pooled from healthy donors or BALB/c mouse plasma (197 µL, Innovative Research) was added to the mixture, followed by incubation at 37 °C. Aliquots (10 µL) were collected at each time point (0, 1, 6, 24, 48, and 96 h) and 40 µL of cold acetonitrile containing 1% formic acid was added to precipitate proteins. Supernatant of each sample was obtained and analyzed for quantification by analytical HPLC as described above. All assays were performed in triplicate.

human liver cathepsin B = biological target: T1, human liver cathepsin B (Homo sapiens, UniProt P07858); assay: Cathepsin B-mediated cleavage assay using pyrene probes; format: biochemical; conditions: 37 °C, pH 5.0
T1 construct: Pre-warmed human liver cathepsin B (20 ng µL^–1, EMD Millipore); purchased EMD Millipore; host or cells: human liver (tissue-derived, as named)
Procedure: Each test compound (10 mM in DMSO, 2 µL) was mixed with 97 µL of MES buffer (25 mM MES-Na, 1 mM DTT, pH 5.0) and 1 µL of 1-pyrenemethylamine (10 mM in DMSO, internal standard). The mixture was incubated at 37 °C for 10 min. Pre-warmed human liver cathepsin B (20 ng µL^–1, EMD Millipore) in 100 µL MES buffer was added to the mixture, followed by incubation at 37 °C. Aliquots (10 µL) were collected at each time point (0, 0.5, 1, 3, 24, and 48 h). Cold acetonitrile containing 1% formic acid (40 µL) was added to precipitate proteins. Precipitated proteins were separated by centrifugation (15,000 × g, 4 °C, 30 min) and supernatant of each sample was analyzed for quantification by analytical HPLC (UV absorption at 342 nm). The amount of each probe was normalized to the peak area of the internal standard. All assays were performed at least three times in technical duplicate, and data shown are representative of the replicates.

[1] = ref US8512707B2; cited from earlier work

Row | Compound | half-life at 100 µM (in vitro) [h] | Cathepsin B-mediated cleavage rate of probes (human liver cathepsin B) | maximum tolerated dose (MTD) [1] [mg/kg]
1 | CC(=O)NC(C(=O)NC(CCCNC(N)=O)C(=O)Nc1ccc(COC(=O)N(C)CC(=O)NCc2ccc3ccc4cccc5ccc2c3c45)cc1)C(C)C (centres unmarked) [probe 1a] | 2.3 |  | 
2 | CC(=O)NC(CC(=O)O)C(=O)NC(C(=O)NC(CCCNC(N)=O)C(=O)Nc1ccc(COC(=O)N(C)CC(=O)NCc2ccc3ccc4cccc5ccc2c3c45)cc1)C(C)C (centres unmarked) [probe 1d] (Ac-DV[Cit][PABC][Sar]-{NHCH2(1-pyrenyl)}; configuration not given here) | 14 |  | 
3 | CC(=O)NC(CCC(=O)O)C(=O)NC(C(=O)NC(CCCNC(N)=O)C(=O)Nc1ccc(COC(=O)N(C)CC(=O)NCc2ccc3ccc4cccc5ccc2c3c45)cc1)C(C)C (centres unmarked) [probe 1c] (Ac-EV[Cit][PABC][Sar]-{NHCH2(1-pyrenyl)}; configuration not given here) | 19.1 |  | 
4 | CC(=O)NC(CO)C(=O)NC(C(=O)NC(CCCNC(N)=O)C(=O)Nc1ccc(COC(=O)N(C)CC(=O)NCc2ccc3ccc4cccc5ccc2c3c45)cc1)C(C)C (centres unmarked) [probe 1b] (Ac-SV[Cit][PABC][Sar]-{NHCH2(1-pyrenyl)}; configuration not given here) | 3.1 | cleavage rate comparable with that of VCit probe 1a | 
5 | CC(=O)NC(CCCCN)C(=O)NC(C(=O)NC(CCCNC(N)=O)C(=O)Nc1ccc(COC(=O)N(C)CC(=O)NCc2ccc3ccc4cccc5ccc2c3c45)cc1)C(C)C (centres unmarked) [probe 1e] (Ac-KV[Cit][PABC][Sar]-{NHCH2(1-pyrenyl)}; configuration not given here) | 0.9 |  | 
6 | CC[C@H](C)[C@@H]([C@@H](CC(=O)N1CCC[C@H]1[C@H](OC)[C@@H](C)C(=O)N[C@H](C)[C@@H](O)c1ccccc1)OC)N(C)C(=O)[C@@H](NC(=O)[C@@H](NC)C(C)C)C(C)C [MMAE, monomethyl auristatin E] (H-[NMeV]V[Dil][Dolaproine]-X1) |  |  | 1
7 | CC(C)C(NC(=O)CNC(=O)CO)C(=O)NC(CCCNC(N)=O)C(=O)Nc1ccc(COC(=O)N(C)CC(=O)NCc2ccc3ccc4cccc5ccc2c3c45)cc1 (centres unmarked) [probe 1f] (Glycolyl-GV[Cit][PABC][Sar]-{NHCH2(1-pyrenyl)}; configuration not given here) | 5 |  | 
